In patent publication US9168286B2, “Methods and compositions for use in treatment of patients with autoantibody positive disease” (Human Genome Sciences, Inc., priority 2005, dated 2015):

Key:
B cells = test: B cell survival assay; assay type: cell-based, mouse; details: Pim-1−/−2−/− B cells, 100 ng/ml rhuNeutrokine-alpha, 4 days
Excerpt: Mice: Pim-1^+/+2^+/+, Pim-1^−/−2^+/+, Pim-1^+/+2^−/− and Pim-1^−/−2^−/− mice were generated from Pim-1^+/−2^+/− stock of Paul Rothman Columbia University, New York, N.Y. C57BL/6 (B6) mice were from The Jackson Laboratory, Bar Harbor Me. or from the National Cancer Institute Production Program, NCI-Fredrick, Fredrick Md. Animals were bred and maintained at the Univ. of Pennsylvania, Harvard Medical School, or the Univ. of Massachusetts Medical School in accordance with Institutional Animal Care and Use Committee guidelines.
B cell purification: Splenic B cells were obtained by anti-thy1.2 and complement treatment of splenocytes followed by purification of resting B cells using a step wise percoll gradient and harvesting cells at the 60-70% interface. […]
Survival assays: B cells at 5×10^6/ml were cultured in 24-well tissue culture dishes in CM at 37° C. […] Survival was monitored daily by counting viable cells using trypan blue exclusion with each determination done in triplicate.
Rapamycin is a potent inhibitor of mTOR and a potent suppressor of B cell proliferation and differentiation. […] Viable cells were determined at day 4. […]

Akt/mTOR pathway = test: Western blotting of Akt/mTOR pathway phosphorylation in B cells; assay type: cell-based, mouse
Method: Cell cultures: Purified B cells or CD23′ B cells were cultured in RPMI-1640 supplemented with 2-mercaptoethanol, MEM-non-essential amino acids, glutamine, penicillin and streptomycin (complete media, CM). For B cell survival and other assays recombinant human Neutrokine-alpha made at Human Genome Sciences, Rockville Md. was used at 50-100 ng/ml. FLAG-tagged human Neutrokine-alpha was from Dr. Randolph Noelle, Dartmouth Medical School. Murine Neutrokine-alpha was purchased from Alexis Biochemicals, San Diego Calif. and human interferon alpha (IFNα) from PBL Biomedical, Piscataway, N.J. Rapamycin was used at a final concentration of 50 nM, added to cultures from a stock dissolve in methanol. Control B cells in experiments using rapamycin were treated with methanol as a vehicle control. For kinetic assays B cells were prepared and refrigerated overnight at 4° C. 5-6×10^6 purified B cells per sample were spun onto 24-well plates that had been coated with 5 ug/ml monoclonal anti-FLAG M2 antibody (Sigma), washed, blocked with 1% BSA in PBS, followed by the addition of FLAG-tagged human Neutrokine-alpha 2 ug/well an hour prior to washing and cell addition. Unstimulated control B cells were those spun onto wells treated with anti-FLAG antibody alone. B cells were also activated by incubation with anti-murine IgM (5 ug/ml), anti-CD40 (0.5 ug/ml) or 100 ng/ml of recombinant human Neutrokine-alpha added to kinetic assay buffer (Hank's balanced salt solution plus 2% BSA).
Antibodies and Western Blotting: Mouse anti-Pim 2 (1D12), Pim 1 (19F7), goat anti-actin (1-19), anti-mouse Ig, anti-rabbit Ig and anti-goat Ig coupled to HRP were obtained from Santa Cruz Biotechnology, Santa Cruz Calif. […] Rabbit anti-mouse Mcl-1 was purchased from Rockland, Wilmington Mass. […]
Purified B cells were stimulated for the 0, 5, 20, 60 or 120 minutes with 100 ng/ml recombinant human or murine Neutrokine-alpha or anti-Ig (positive control) at 37° C. in pregassed medium. Lysates were prepared from iced samples and analyzed by Western Blot. […]

Pim1 and Pim 2 = test: Western blot of Pim1 and Pim 2 expression in primary B cells; assay type: cell-based, mouse; details: 2 days, 100 ng/ml rhuNeutrokine-alpha
Method: Antibodies and Western Blotting: Mouse anti-Pim 2 (1D12), Pim 1 (19F7), goat anti-actin (1-19), anti-mouse Ig, anti-rabbit Ig and anti-goat Ig coupled to HRP were obtained from Santa Cruz Biotechnology, Santa Cruz Calif. […] Rabbit anti-mouse Mcl-1 was purchased from Rockland, Wilmington Mass. Whole cell lysates were prepared by washing B cells in ice cold PBS and lysing in RIPA (150 mM NaCl, 1% NP-40, 0.5% sodium deoxycholate, 0.1% SDS, 50 mM Tris pH8.0) supplemented with protease inhibitors (minitab, Roche, Indianapolis Ind.) and phosphatase inhibitor cocktails I and II (Sigma). 10-50 ug of protein was resolved on 4-12% NuPage bis-tris polyacrylamide gels (Invitrogen, Carlsbad Calif.) and transferred to nitrocellulose. Blots were blocked with 3% BSA (Sigma, IgG free), 0.2% Tween-20 in PBS and incubated with primary antibody in the same buffer overnight at 4° C. Blots were washed with PBS-0.2% Tween-20, incubated with secondary antibody conjugated with HRP and developed using ECLplus (Amersham Bioscience, Piscataway N.J.). Blots were stripped for reprobing by incubation for 20 minutes at 65° C. in PBS supplemented with 1% SDS and […] β-mercaptoethanol. Blots were then washed and blocked as above. […]

[1] = test system: Neutrokine-alpha in monocytes and macrophages; test: Neutrokine-alpha expression in cytokine-treated monocytes and macrophages; assay type: cell-based; details: in vitro
B cell = test: Neutrokine-alpha mediated B cell proliferation with cytokines; assay type: cell-based
Method: In an additional embodiment, an immunomodulatory agent is administered in combination with cytokines. Cytokines that may be administered with an immunomodulatory agent include, but are not limited to, GM-CSF, G-CSF, IL2, IL3, IL4, IL5, IL6, IL7, IL10, IL12, IL13, IL15, anti-CD40, CD40L, IFN-alpha, IFN-beta, IFN-gamma, TNF-alpha, and TNF-beta. In another embodiment, an immunomodulatory agent may be administered with any interleukin, including but not limited to, IL-1alpha, IL-1beta, IL-2, IL-3, IL-4, IL-5, IL-6, IL-7, IL-8, IL-9, IL-10, IL-11, IL-12, IL-13, IL-14, IL-15, IL-16, IL-17, IL-18, IL-19, IL-20, IL-21, and IL-22. In preferred embodiments, an immunomodulatory agent is administered in combination with IL4 and IL10. Both IL4 and IL10 have been observed by the inventors to enhance Neutrokine-alpha mediated B cell proliferation.

“Neutrokine-alpha: recombinant human Neutrokine-alpha made at Human Genome Sciences; member of the TNF family of ligands” was tested, and the B cell survival (B cells) was “enhanced survival”, the “mTOR activation (phosphorylation of p70 S6 kinase and 4E-BP1)” value (Akt/mTOR pathway; primary B cells) was “activation of mTOR” and the “Akt phosphorylation (serine 473 and threonine 308)” value (Akt/mTOR pathway; primary B cells, 100 ng/ml, 0-120 minutes) was “activation of the Akt pathway”. The “phosphorylation of GSKβ, FOXO1 and FOXO3a” value (Akt/mTOR pathway; purified B cells, plate bound FLAG-tagged or soluble (100 ng/ml) Neutrokine-alpha) was “phosphorylation of the Akt substrates” and the “Pim1 and Pim 2 expression” value (Pim1 and Pim 2) was “upregulate”.

B1: IL-10: cytokine (protein, UniProt P22301 19-178, looked up)
Interleukin-10: SPGQGTQSENSCTHFPGNLPNMLRDLRDAFSRVKTFFQMKDQLDNLLLKESLLEDFKGYLGCQALSEMIQFYLEEVMPQAENQDPDIKAHVNSLGENLKTLRLRLRRCHRFLPCENKSKAVEQVKNAFNKLQEKGIYKAMSEFDIFINYIEAYMTMKIRN
B1 was tested, and the “cell surface expression of Neutrokine-alpha” value (“cell surface expression” below) [1] was “enhance” and the “Neutrokine-alpha mediated B cell proliferation” value (B cell) was “enhance”.

B2: IFN gamma: cytokine (protein, UniProt P01579 24-161, looked up)
Interferon gamma: QDPYVKEAENLKKYFNAGHSDVADNGTLFLGILKNWKEESDRKIMQSQIVSFYFKLFKNFKDDQSIQKSVETIKEDMNVKFFNSNKKKRDDFEKLTNYSVTDLNVQRKAIHELIQVMAELSPAAKTGKRKRSQMLFRG
In the case of B2, the “cell surface expression” value [1] is reported as “enhance”.

B3: IL-4: cytokine (protein, UniProt P05112 25-153, looked up)
Interleukin-4: HKCDITLQEIIKTLNSLTEQKTLCTELTVTDIFAASKNTTEKETFCRAATVLRQFYSHHEKDTRCLGATAQQFHRHKQLIRFLKRLDRNLWGLAGLNSCPVKEANQSTLENFLERLKTIMREKYSKCSS
With B3 the “cell surface expression” value [1] was “decreased” and the “Neutrokine-alpha mediated B cell proliferation” value (B cell) was “enhance”.
